The results in this text go back to patent US7999009B2, “Strontium salts of sulphonic acids, a process for their preparation and pharmaceutical compositions containing them” (Les Laboratoires Servier, priority 2006, dated 2011).

In data set [1] the test system is fragments of bovine cartilage. Kind of data set: Alamar blue toxicity test in the bovine cartilage culture. The following applies: 21 days of cultivation, whatever the dose (0.01-10 mM). The class given is cell-based. The procedure:
(§1) The duration of the cultivation period is 21 days (culture medium changed every 2 days). A group not treated with TNFα and oncostatin M constitutes the control group. Five lots of stimulated cartilage fragments were treated with the compound of Example 1, each at a different dose: 0.01; 0.1; 1; 3 and 10 mM. 5 replications were carried out for each dose.
The treatment is moreover well tolerated by the cells for the 21 days of cultivation (toxicity test employed: Alamar blue—negative whatever the dose).
On the technique in general: Resazurin is reduced to fluorescent resorufin, in cell work by metabolically active cells.

Data set [2] deals with fragments of bovine cartilage. Description: In vitro inhibition of bovine cartilage catabolism (cartilage fragments stimulated with TNFα and oncostatin M, 21 days). The class given is cell-based. To be noted: for percentage inhibition of the degradation of the proteins in the cartilage: D21; for percentage inhibition of the degradation of the GAGs: D21, DMB technique. The procedure:
The study was carried out on fragments of bovine cartilage in culture medium (96-well plate), the degradation of which is stimulated by adding TNFα and oncostatin M (Schaller, S., Henriksen, K., Hoegh-Andersen, P., Sondergaard, B. C., Sumer, E. U., Tanko, L. B., Qvist, P., Karsdal, M. A. In vitro, ex vivo, and in vivo methodological approaches for studying therapeutic targets of osteoporosis and degenerative joint diseases: how biomarkers can assist? Assay. Drug Dev. Technol. 3, 553-580 (2005).
as §1
On D19, the concentration of CTX II (fragment of type II collagen resulting from the degradation of that collagen by metalloproteases) in the culture medium is measured using an ELISA technique. That parameter is expressed in ng/ml/mg of cartilage.
On D21, the following are measured in the cartilage remaining at the end of cultivation: • the quantity of proteins, using the kit marketed by Biorad. For the groups treated with the compound of Example 1, the results of this parameter are expressed as the percentage inhibition of the degradation of the proteins in the cartilage of the untreated control group; • and the quantity of glycosaminoglycans (GAGs), using the […] (DMB). That parameter, too, is expressed as a percentage inhibition of the degradation of the GAGs evaluated in the control group after culturing for 21 days. Results

For `O=S(=O)([O-])CCCS(=O)(=O)[O-].[Sr+2]` [Example 1, Strontium 1,3-propanedisulphonate], the “toxicity test Alamar blue (tolerance by the cells)” value in data set [1] is reported as “negative”. Besides, the half-inhibitory concentration (IC50) – broadly, the concentration at which inhibition is half-maximal – in data set [2] (D19, ELISA, TNFα + oncostatin M stimulated cartilage, significant (p<0.001), dose-dependent, read-out: inhibition of the salting out of CTX II in the culture medium (IC50)) is 3.5 mM. In addition, the “percentage inhibition of the degradation of the proteins in the cartilage” value stood at 22% in data set [2] (dose 1 mM); 41% in data set [2] (dose 3 mM); 55%* in data set [2] (dose 10 mM, *p < 0.05). Besides, the “percentage inhibition of the degradation of the GAGs” value in data set [2] (dose 1 mM) came to 4%; in data set [2] (dose 3 mM), 8%; in data set [2] (dose 10 mM, **p < 0.01) it was 26%**.
